Patent publication US5994308A, “Broad spectrum antimicrobial peptides containing a tryptophan triplet and methods of use” (Board of Trustees of Southern Illinois University, priority 1997, dated 1999)
Where a SMILES comes first, the peptide text is derived from it.

Key:
Aspergillus fumigatus = assay type: cell-based; details: 24 h
Description: (§1) The minimum inhibitory concentration (MIC) was determined by growing fungal strains in YG media until the fungi reached logarithmic phase. The cells were diluted in YG medium then placed in a 96-well plate along with a series of 2-fold dilutions of the peptides. The plate was then incubated at 37° C. for 24 hours. Minimum inhibitory growth was defined as the lowest concentration at which there was no fungal growth.

Candida albicans = assay type: cell-based; details: 24 h
Description: as §1

| Compound | MINIMUM INHIBITORY CONCENTRATION Aspergillus fumigatus (Aspergillus fumigatus) [µg/mL] | MINIMUM INHIBITORY CONCENTRATION Candida albicans (Candida albicans) [µg/mL] |
| --- | --- | --- |
| CC(C)C[C@H](NC(=O)[C@H](Cc1ccccc1)NC(=O)[C@@H]1CCCN1C(=O)[C@H](Cc1c[nH]c2ccccc12)NC(=O)[C@H](Cc1c[nH]c2ccccc12)NC(=O)[C@H](Cc1c[nH]c2ccccc12)NC(=O)[C@@H]1CCCN1C(=O)[C@H](Cc1ccccc1)NC(=O)[C@H](CCCNC(=N)N)NC(=O)[C@H](CCCNC(=N)N)NC(=O)[C@@H](N)C(C)C)C(=O)N[C@@H](CCCNC(=N)N)C(=O)N[C@@H](CCCNC(=N)N)C(=O)O [Peptide 1, VRRFPWWWPFLRR] | 250 | 1000 |
| CC(C)C[C@H](NC(=O)[C@H](Cc1ccccc1)NC(=O)[C@@H]1CCCN1C(=O)[C@H](Cc1c[nH]c2ccccc12)NC(=O)[C@H](Cc1c[nH]c2ccccc12)NC(=O)[C@H](Cc1c[nH]c2ccccc12)NC(=O)[C@@H]1CCCN1C(=O)[C@H](Cc1ccccc1)NC(=O)[C@@H](N)CCCNC(=N)N)C(=O)N[C@@H](CCCNC(=N)N)C(=O)O [Peptide 3, RFPWWWPFLR] (H-RFPWWWPFLR-OH) | 500 | – |
| N[C@@H](Cc1ccccc1)C(=O)N1CCC[C@H]1C(=O)N[C@@H](Cc1c[nH]c2ccccc12)C(=O)N[C@@H](Cc1c[nH]c2ccccc12)C(=O)N[C@@H](Cc1c[nH]c2ccccc12)C(=O)N1CCC[C@H]1C(=O)N[C@@H](Cc1ccccc1)C(=O)O [Peptide 4, FPWWWPF] (H-FPWWWPF-OH) | 500 | – |
